In the NIST ThermoML archive (doi:10.1016/j.jct.2011.06.001):

Assays:
[1] = Crystal; DTA
[2] = Molar enthalpy of transition or fusion; conditions: Crystal; DSC
[3] = molar heat capacity at constant pressure; conditions: 101.33 kPa, Small sample (50 mg) DSC
[4] = molar enthalpy of vaporization or sublimation; conditions: 333.15 K, Crystal

[CH]1C=CC=C1.[CH]1C=CC=C1.[Fe] [ferrocene]
Conditions | Molar enthalpy of transition or fusion [kcal/mol] | Normal melting temperature [°C]
[1] | – | 175
[2] | 4.25 | –

molar heat capacity at constant pressure [J/K/mol], [3]
Conditions | Crystal | Gas
293 K | 186.22 | 163.5
294 K | 186.78 | 164.13
295 K | 187.52 | 164.76
296 K | 188.08 | 165.39
297 K | 189.01 | 166.02
298 K | 189.75 | 166.65
298.15 K | 189.75 | –
299 K | 190.5 | 167.27
300 K | 191.24 | 167.9
301 K | 191.8 | 168.53
302 K | 192.36 | 169.15
303 K | 193.1 | 169.78
304 K | 193.84 | 170.4
305 K | 194.4 | 171.03
306 K | 195.15 | 171.65
307 K | 195.7 | 172.27
308 K | 196.45 | 172.9
309 K | 197.19 | 173.52
310 K | 197.94 | 174.14
311 K | 198.31 | 174.76
312 K | 199.24 | 175.38
313 K | 199.8 | 176
314 K | 200.54 | 176.61
315 K | 201.29 | 177.23
316 K | 202.03 | 177.85
317 K | 202.77 | 178.46
318 K | 203.33 | 179.07
319 K | 204.08 | 179.69
320 K | 204.45 | 180.3
321 K | 205.38 | 180.91
322 K | 205.94 | 181.52
323 K | 207.05 | 182.13
324 K | 207.61 | 182.74
325 K | 208.35 | 183.35
326 K | 209.1 | 183.96
327 K | 209.66 | 184.56
328 K | 210.22 | 185.17
329 K | 210.77 | 185.77
330 K | 211.33 | 186.37
331 K | 212.26 | 186.98
332 K | 213.01 | 187.58
333 K | 213.75 | 188.18
334 K | 214.49 | 188.78
335 K | 215.24 | 189.37
336 K | 215.8 | 189.97
337 K | 216.54 | 190.57
338 K | 217.28 | 191.16
339 K | 218.21 | 191.76
340 K | 218.77 | 192.35
341 K | 219.7 | 192.94
342 K | 220.26 | 193.53
343 K | 221.01 | 194.12
344 K | 221.56 | 194.71
345 K | 222.49 | 195.3
346 K | 223.24 | 195.88
347 K | 223.8 | 196.47
348 K | 223.98 | 197.05
349 K | 225.1 | 197.64
350 K | 226.77 | 198.22
351 K | 226.59 | 198.8
352 K | 226.96 | 199.38
353 K | 227.7 | 199.96

[4]
Conditions | molar enthalpy [kcal/mol]
DSC | 17.3
Static calorimetry | 17.5

[Ni+2].c1cc[cH-]c1.c1cc[cH-]c1 [nickelocene]
Conditions | Molar enthalpy of transition or fusion [kcal/mol] | Normal melting temperature [°C]
[1] | – | 177.7
[2] | 4.54 | –

molar heat capacity at constant pressure [J/K/mol], [3]
Conditions | Crystal | Gas
293 K | 199.08 | 171.05
294 K | 199.83 | 171.62
295 K | 200.59 | 172.19
296 K | 201.35 | 172.76
297 K | 202.1 | 173.33
298 K | 203.05 | 173.9
298.15 K | 203.23 | –
299 K | 203.8 | 174.47
300 K | 204.37 | 175.04
301 K | 205.31 | 175.6
302 K | 206.07 | 176.17
303 K | 206.63 | 176.74
304 K | 207.2 | 177.31
305 K | 208.15 | 177.88
306 K | 208.9 | 178.45
307 K | 209.66 | 179.02
308 K | 210.6 | 179.58
309 K | 211.36 | 180.15
310 K | 212.11 | 180.72
311 K | 212.68 | 181.29
312 K | 213.43 | 181.85
313 K | 214 | 182.42
314 K | 214.76 | 182.99
315 K | 215.51 | 183.55
316 K | 216.08 | 184.12
317 K | 216.83 | 184.68
318 K | 217.59 | 185.25
319 K | 218.35 | 185.81
320 K | 218.91 | 186.37
321 K | 219.67 | 186.94
322 K | 220.23 | 187.5
323 K | 221.37 | 188.06
324 K | 222.31 | 188.62
325 K | 223.07 | 189.19
326 K | 223.82 | 189.75
327 K | 224.58 | 190.31
328 K | 225.14 | 190.87
329 K | 225.71 | 191.43
330 K | 226.09 | 191.98
331 K | 226.84 | 192.54
332 K | 227.6 | 193.1
333 K | 228.17 | 193.66
334 K | 228.92 | 194.21
335 K | 229.49 | 194.77
336 K | 230.24 | 195.32
337 K | 230.62 | 195.88
338 K | 231.19 | 196.43
339 K | 231.76 | 196.98
340 K | 232.51 | 197.54
341 K | 233.08 | 198.09
342 K | 233.83 | 198.64
343 K | 234.21 | 199.19
344 K | 234.97 | 199.74
345 K | 235.53 | 200.29
346 K | 236.1 | 200.84
347 K | 236.67 | 201.38
348 K | 237.23 | 201.93
349 K | 237.99 | 202.48
350 K | 238.56 | 203.02
351 K | 238.93 | 203.56
352 K | 239.69 | 204.11
353 K | 240.07 | 204.65

[4]
Conditions | molar enthalpy [kcal/mol]
DSC | 17.1
Static calorimetry | 17.2
